Patent US8007800B2, “Methods for treating bone cancer pain by administering a nerve growth factor antagonist antibody” (Pfizer Inc., priority 2004, dated 2011)

Assays:
[1] = test system: C3H/HeJ mice injected with NCTC 2472 osteolytic murine sarcoma cells into the femur; test: Example 2: murine sarcoma bone cancer pain model, ongoing and palpation-evoked pain behaviors; assay type: in vivo, mouse; conditions: days 10 and 14, vs sarcoma+vehicle
human NGF = human NGF (Homo sapiens, UniProt P01138); test: Binding affinity of Fab fragments to NGF (BIAcore surface plasmon resonance); conditions: measured using Fab fragments
Method: The binding affinity of an anti-NGF antibody to NGF (such as hNGF) can be about 0.10 to about 1.0 nM, about 0.10 nM to about 0.80 nM, about 0.15 to about 0.75 nM and about 0.18 to about 0.72 nM. […] In some embodiment, the binding affinity is about 10 nM. In other embodiments, the binding affinity is less than about 10 nM. […] As is well known in the art, binding affinity can be expressed as KD, or dissociation constant, and an increased binding affinity corresponds to a decreased KD.
One way of determining binding affinity of antibodies to NGF is by measuring binding affinity of monofunctional Fab fragments of the antibody. To obtain monofunctional Fab fragments, an antibody (for example, IgG) can be cleaved with papain or expressed recombinantly. The affinity of an anti-NGF Fab fragment of an antibody can be determined by surface plasmon resonance (BIAcore3000™ surface plasmon resonance (SPR) system, BIAcore, INC, Piscaway N.J.). CM5 chips can be activated with N-ethyl-N′-(3-dimethylaminopropyl)-carbodiinide hydrochloride (EDC) and N-hydroxysuccinimide (NHS) according to the supplier's instructions. […] The concentrations of the Fab proteins are determined by ELISA and/or SDS-PAGE electrophoresis using a Fab of known concentration (as determined by amino acid analysis) as a standard. […] Equilibrium dissociation constant (KD) values are calculated as koff/kon. […]

Chain of human NGF (P01138 122-241): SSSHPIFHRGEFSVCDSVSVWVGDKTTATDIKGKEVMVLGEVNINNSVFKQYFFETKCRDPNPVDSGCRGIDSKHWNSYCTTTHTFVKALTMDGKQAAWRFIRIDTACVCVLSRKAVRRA

Row | Compound | ongoing and movement-evoked guarding behaviors ([1]; morphine sulfate 10 mg/kg i.p. 15 min prior to testing) | ongoing and movement-evoked guarding behaviors ([1]; morphine sulfate 30 mg/kg i.p. 15 min prior to testing) | Kd (human NGF)
1 | CN1CC[C@]23c4c5ccc(O)c4O[C@H]2[C@@H](O)C=C[C@H]3[C@H]1C5.O=S(=O)(O)O [morphine sulfate] | significantly reduced | significantly reduced | 
2 | antibody E3: humanized mouse anti-NGF monoclonal antibody; human IgG2a constant region A330P331 to S330S331, kappa light chain, variable regions SEQ ID NO:1 and 2 |  |  | ~0.07 nM
